Like-named read-outs stand apart in the source and are kept apart here.
Columns and labels:
[1] = tested on: CYP3A4-luc transgene (13 kb human CYP3A4 promoter); conditions: mouse, in vivo
Experimental: General methods for evaluating the animal lines were as follows. Tg founders were bred to wild-type FvB mice to generate F1 mice. A female transgenic founder was bred to a wild-type FvB male and a male transgenic founder was bred to a few wild-type FvB females.
A Luciferin stock solution of 30 mg/ml was prepared in sterile PBS.
The route of administration for the drugs and for luciferin was IP. The dose of reagent administration of luciferin substrate and drugs was as follows. Dose of luciferin: 150 mg/kg of a 30 mg/ml luciferin stock was injected IP five minutes before imaging in the IVIS™ (Xenogen Corporation, Alameda, Calif.) system. […] DMSO was administrated as a vehicle control.
Following luciferin administration the animals were anesthetized using gas anesthesia (Isoflurane) and placed in an IVIS™ box (Xenogen Corporation, Alameda, Calif.) for imaging. All animals were imaged before and after chemical administration, and imaged at high resolution (binning 2) for 10 seconds or 1 minute, for males and females, respectively.
NT is the non-treated control. Before each imaging session, mice were injected i.p. with 150 mg/kg luciferin. […] Measurements on each mouse were performed as described above. […] Measurements on each mouse were performed as described above.

[2] = target: T1, hPXR (Homo sapiens, UniProt O75469); conditions: cited from earlier work
T1 sequence (O75469 1-434): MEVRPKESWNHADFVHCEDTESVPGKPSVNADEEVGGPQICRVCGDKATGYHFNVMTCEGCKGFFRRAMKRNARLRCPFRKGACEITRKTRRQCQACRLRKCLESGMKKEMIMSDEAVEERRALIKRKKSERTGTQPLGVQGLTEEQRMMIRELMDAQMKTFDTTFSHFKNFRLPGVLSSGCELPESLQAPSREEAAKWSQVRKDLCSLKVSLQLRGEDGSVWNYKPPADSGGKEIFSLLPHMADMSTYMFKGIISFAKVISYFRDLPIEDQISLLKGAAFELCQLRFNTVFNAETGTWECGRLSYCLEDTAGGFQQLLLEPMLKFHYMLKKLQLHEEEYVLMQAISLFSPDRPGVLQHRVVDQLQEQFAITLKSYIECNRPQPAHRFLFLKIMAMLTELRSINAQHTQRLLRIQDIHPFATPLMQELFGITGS

[3] = cell culture, Xie et al. 2000, Goodwin et al. 1999

Compound | induction of the transgene CYP3A4-luc ([1]; FVB (CYP3A4-luc transgenic, line #82)) | induction of CYP3A4 expression via hPXR [2, 3] | induction of the transgene CYP3A4-luc [1] | induction of CYP3A4 expression via hPXR [2]
Clc1ccccc1C(c1ccccc1)(c1ccccc1)n1ccnc1 [Clotrim, clotrimazole] | induced the transgene CYP3A4-luc better than other three compounds | relatively better inducers of CYP3A4 expression |  | 
CC(=O)[C@H]1[C@H](C#N)C[C@H]2[C@@H]3CC=C4C[C@@H](O)CC[C@]4(C)[C@H]3CC[C@@]21C [PCN, 5-pregnene-3b-OL-20-ONE-16a-Carbonitrile] |  | weaker inducers | induced the transgene CYP3A4-luc better than other three compounds | 
CCC1(c2ccccc2)C(=O)NC(=O)NC1=O [Phenob, phenobarbitol] |  |  | induced the transgene to various degrees | relatively better inducers of CYP3A4 expression
CC(=O)[C@H]1CC[C@H]2[C@@H]3CC=C4C[C@@H](O)CC[C@]4(C)[C@H]3CC[C@]12C [Preg, pregnenolone] |  |  | all drugs except for Preg induced the transgene | weaker inducers
